pIC50: −log10 of the molar value.
Key:
MV4-11 = MV4-11 cell line; cited from earlier work
FLT3 = molecular target: T1, FLT3 (Homo sapiens, UniProt P36888); details: in vitro; cited from earlier work
T1 sequence (P36888 27-993): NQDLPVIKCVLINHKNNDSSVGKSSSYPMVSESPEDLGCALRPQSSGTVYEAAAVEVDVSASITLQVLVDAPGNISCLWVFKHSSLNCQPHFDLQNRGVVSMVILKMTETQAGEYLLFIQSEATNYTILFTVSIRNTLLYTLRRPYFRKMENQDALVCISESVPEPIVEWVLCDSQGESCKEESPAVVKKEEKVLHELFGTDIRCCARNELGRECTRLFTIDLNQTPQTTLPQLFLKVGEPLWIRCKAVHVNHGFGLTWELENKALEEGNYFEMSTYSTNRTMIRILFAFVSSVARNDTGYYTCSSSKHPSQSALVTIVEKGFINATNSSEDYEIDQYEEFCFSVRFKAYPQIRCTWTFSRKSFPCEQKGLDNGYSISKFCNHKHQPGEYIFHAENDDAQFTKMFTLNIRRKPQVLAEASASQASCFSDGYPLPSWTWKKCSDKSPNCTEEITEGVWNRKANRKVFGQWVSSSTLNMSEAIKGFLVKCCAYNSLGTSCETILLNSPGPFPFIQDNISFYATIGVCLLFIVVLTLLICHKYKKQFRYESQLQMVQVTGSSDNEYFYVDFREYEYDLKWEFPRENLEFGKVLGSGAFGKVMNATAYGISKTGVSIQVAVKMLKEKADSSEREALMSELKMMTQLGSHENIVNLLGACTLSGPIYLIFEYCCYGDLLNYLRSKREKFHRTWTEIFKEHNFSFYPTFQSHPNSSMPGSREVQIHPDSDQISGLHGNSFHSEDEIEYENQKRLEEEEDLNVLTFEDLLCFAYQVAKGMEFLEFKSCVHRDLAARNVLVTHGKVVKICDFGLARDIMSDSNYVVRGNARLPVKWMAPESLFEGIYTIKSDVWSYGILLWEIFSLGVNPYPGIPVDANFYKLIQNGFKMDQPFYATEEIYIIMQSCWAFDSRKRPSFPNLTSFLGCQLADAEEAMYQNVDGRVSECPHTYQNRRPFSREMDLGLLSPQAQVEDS

DU145 = DU145 cell line; cited from earlier work
HEL92.1.7 = HEL92.1.7 cell line; cited from earlier work
[1] = Thermodynamic aqueous solubility; format: physicochemical
Protocol: Aqueous solubility was determined by suspending sufficient compound in water to give a maximum final concentration of 210 mg·ml^−1 of the parent free-form of the compound. The suspension was equilibrated at 25° C. for 24 hours then the pH was measured. The suspension was then filtered through a glass fibre C filter into a 96 well plate. The filtrate was then diluted by a factor of 101. Quantitation was by HPLC with reference to a standard solution of approximately 0.1 mg·ml^−1. in DMSO. Different volumes of the standard, diluted and undiluted sample solutions were injected. The solubility was calculated using the peak areas determined by integration of the peak found at the same retention time as the principal peak in the standard injection.
Analysis was performed on an Agilent HP1 100 series system equipped with a diode array detector and using ChemStation software vB.02.01-SR1.

[2] = Log P determination by potentiometric titration; format: physicochemical
Excerpt: Data were collected by potentiometric titration on a Sirius GlpKa instrument using three ratios of octanol:ionic-strength adjusted (ISA) water to generate Log P, Log Pion, and Log D values. The data were refined using Refinement Pro software v2.2. Prediction of Log P values was made using ACD v12 software.

JAK2 = JAK2 (Homo sapiens, UniProt O60674); details: in vitro; cited from earlier work
HL60 = HL60 cell line; cited from earlier work
[3] = Gravimetric Vapour Sorption (GVS) at 25° C.; format: physicochemical
Protocol: Sorption isotherms were obtained using a SMS DVS Intrinsic moisture sorption analyser, controlled by SMS Analysis Suite software. The sample temperature was maintained at 25° C. by the instrument controls. The humidity was controlled by mixing streams of dry and wet nitrogen, with a total flow rate of 200 ml.min^−1. The relative humidity was measured by a calibrated Rotronic probe (dynamic range of 1.0-100% RH), located near the sample. The weight change, (mass relaxation) of the sample as a function of % RH was constantly monitored by the microbalance (accuracy ±0.005 mg). Typically 5-20 mg of sample was placed in a tared mesh stainless steel basket under ambient conditions. The sample was loaded and unloaded at 40% RH and 25° C. (typical room conditions). A moisture sorption isotherm was performed as outlined below (2 scans giving 1 complete cycle). The standard isotherm was performed at 25° C. at 10% RH intervals over a 0.5-90% RH range. The sample was recovered after completion of the isotherm and re-analysed by XRPD.

JAK V617F = JAK V617F (Homo sapiens, UniProt O60674, V617F); details: in vitro; cited from earlier work
Colo205 = Colo205 cell line; cited from earlier work
[4] = Stability in humidity chamber 40° C./75% R.H. (XRPD, HPLC); format: physicochemical
Protocol: After 2 days, the solids were isolated by filtration under vacuum at RT to be characterised by XRPD analysis. Each new crystalline solid phase detected was characterised by ^1H NMR and TGA-DSC analyses in order to determine if salt formation had occurred and whether the material was a solvate. At this stage, each salt identified was then analysed by HPLC to determine the chemical purity prior to being stored in the humidity chamber (40° C./75% R.H.) to assess its stability.

Chain of JAK2 (O60674 whole entry): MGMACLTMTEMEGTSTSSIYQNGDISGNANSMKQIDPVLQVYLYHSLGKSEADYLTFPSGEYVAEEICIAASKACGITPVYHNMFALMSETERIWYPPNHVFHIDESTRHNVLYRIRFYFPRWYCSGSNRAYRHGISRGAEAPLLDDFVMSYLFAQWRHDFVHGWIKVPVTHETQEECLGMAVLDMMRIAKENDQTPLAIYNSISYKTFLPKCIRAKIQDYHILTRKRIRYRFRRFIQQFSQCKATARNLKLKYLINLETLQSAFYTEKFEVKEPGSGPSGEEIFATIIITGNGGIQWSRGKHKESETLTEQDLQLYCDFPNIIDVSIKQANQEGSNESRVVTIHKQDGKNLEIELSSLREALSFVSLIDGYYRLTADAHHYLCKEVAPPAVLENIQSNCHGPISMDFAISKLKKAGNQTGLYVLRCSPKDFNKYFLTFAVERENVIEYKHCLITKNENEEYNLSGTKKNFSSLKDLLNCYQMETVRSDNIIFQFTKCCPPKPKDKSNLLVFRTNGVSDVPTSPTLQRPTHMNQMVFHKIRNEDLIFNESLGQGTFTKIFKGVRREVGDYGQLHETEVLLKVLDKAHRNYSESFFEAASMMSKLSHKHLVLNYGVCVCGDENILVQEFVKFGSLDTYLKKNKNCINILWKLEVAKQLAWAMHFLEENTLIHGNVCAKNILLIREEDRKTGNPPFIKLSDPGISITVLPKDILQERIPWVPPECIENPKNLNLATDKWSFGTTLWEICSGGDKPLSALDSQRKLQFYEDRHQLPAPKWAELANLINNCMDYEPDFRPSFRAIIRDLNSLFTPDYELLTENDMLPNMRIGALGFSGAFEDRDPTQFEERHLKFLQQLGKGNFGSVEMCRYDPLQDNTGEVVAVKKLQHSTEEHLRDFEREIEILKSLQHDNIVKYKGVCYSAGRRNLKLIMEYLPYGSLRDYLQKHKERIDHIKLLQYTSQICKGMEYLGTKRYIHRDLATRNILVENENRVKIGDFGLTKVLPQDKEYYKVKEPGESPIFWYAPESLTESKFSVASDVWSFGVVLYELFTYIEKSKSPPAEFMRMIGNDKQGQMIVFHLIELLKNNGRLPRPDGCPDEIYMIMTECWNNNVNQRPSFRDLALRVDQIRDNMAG
Chain of JAK V617F (O60674 whole entry V617F): as the sequence (O60674 whole entry) above, with V617F counted along it

- solubility at 24 h ([1]; 25 °C, thermodynamic from solid, water): < 1 µg/mL
- final pH ([1]; pH of the aqueous suspension after equilibration): 8.9
- aqueous solubility ([1]; water, 25° C., 24 hours): < 1 µg/mL
- logD ([2]; octanol/ionic-strength adjusted (ISA) water, pH 7.4, read-out: Measured LogD7.4): 3.34
- logP ([2]; octanol/ionic-strength adjusted (ISA) water, octanol:ISA water, read-out: Measured LogP): 4.72
- Measured LogPion ([2]; octanol:ISA water): 1.14
- changes in the XRPD pattern after the GVS experiment [3]: between 0 and 90% relative humidity. No
- hydration phenomenon in GVS [3]: GVS analysis was carried out at 25 °C No
- XRPD stability (40° C./75% R.H.) ([4]; 6 weeks): No changes were observed in the humidity
Compound: CN1C/C=C/CCOc2cccc(c2)-c2ccnc(n2)Nc2cccc(c2)C1 [Compound I, 14-methyl-20-oxa-5,7,14,27-tetraazatetracyclo-[19.3.1.12,6.18,12]heptacosa-1(25),2,4,6,8,10,12(26),16,21,23-decaene]
- GI50 (MV4-11): < 1000 nM
- pIC50 (FLT3): > 6.00
- GI50 (DU145): < 1000 nM
- GI50 (HEL92.1.7): < 1000 nM
- pIC50 (JAK2): > 6.00
- GI50 (HL60): < 1000 nM
- pIC50 (JAK V617F): > 6.00
- GI50 (Colo205): < 1000 nM
- HPLC Purity post stability (40° C./75% R.H.) ([4]; after 6 weeks in the humidity chamber): purity of Compound I was measured at 97.0% area
